Patent publication US20230357154A1 (priority 2019, published 2023)
Where two headings read alike, the source gives them in different places.

What was measured:
[1] = mouse, in vivo; for CA (pooled): BChE-KO, 5XFAD-BChE-KO (pooled)
[2] = assay type: in vivo; settings: 5XFAD mouse, IV, 3D SPECT

Structure (SMILES) | CA (pooled) ([1]; 5XFAD, WT) [% Cmax] | time of peak radioligand uptake in brain ([1]; WT and BChE-KO) [minutes post-injection] | t1/2 clearance ([1]; WT) [min] | kclearance (pooled) [1] [min⁻¹] | distribution of the tracer in vivo (extracranial) [2] | radioligand reaching the brain [2] | ability to cross the blood-brain barrier / brain uptake ([1]; iv, 60 min) | time of peak radioligand uptake in brain ([1]; 5XFAD and WT (wild-type)) [minutes post-injection] | t1/2 clearance ([1]; 5XFAD) [min] | CA (asymptotic tracer concentration) ([1]; 5XFAD-BChE-KO) [% Cmax] | time of peak radioligand uptake in brain ([1]; 5XFAD and WT) [minutes post-injection] | decrease in kclearance ([1]; 5XFAD compared to WT) [%] | increase in t1/2clearance ([1]; 5XFAD compared to WT) [%] | t1/2 clearance [1]
Cn1c(C(=O)OCc2ccc(I)cc2)cccc1=O [TRV7006, (p-Iodophenyl)methyl 1-methyl-6-oxo-1H-pyridine-2-carboxylate] | 51.6 ± 3.4 | 2 | 4.72 ± 0.93 | 0.17 ± 0.03 | – | – | – | – | – | – | – | – | – | –
O=C(OCc1ccccc1)c1cccc(OCc2ccc(I)cc2)n1 [TRV7040, Benzyl 6-[(p-iodophenyl)methoxy]-2-pyridinecarboxylate] | – | – | – | – | avid uptake of TRV7040 is seen in the eye and hardarian glands | negligible radioligand reaching the brain | inability of TRV7040 to cross the BBB and reach the brain | – | – | – | – | – | – | –
O=C(OCc1ccc(I)cc1)c1cccc(=O)[nH]1 [TRV7005, (p-Iodophenyl)methyl 6-oxo-1H-pyridine-2-carboxylate] | 45.4 ± 2.4 | – | 7.21 ± 1.75 | 0.11 ± 0.02 | – | – | – | 2 | 6.51 ± 1.19 | 42.8 | – | – | – | –
COc1cccc(C(=O)OCc2ccc(I)cc2)n1 [TRV7019, (p-iodophenyl)methyl 6-methoxy-2-pyridinecarboxylate] | 56.1 ± 3.5 | – | 1.77 ± 0.15 | – | – | – | – | – | 3.22 ± 0.55 | – | 1 | 58 | 82 | 1.77 ± 0..15 min
